Results reported in US20080004200A1, “Enzyme stabilization” (priority 2006, published 2008).
Where a SMILES comes first, the peptide text is derived from it. The star is where a group is joined. Moc = COC(=O)*

Tested on: Gram negative bacteria
Assay: Gram negative cocktail challenge test in inoculated standard liquid laundry detergent
Format: cell-based
Conditions: inhibitor 0.004% by weight in standard liquid laundry detergent; for Count (log viable cells): stored at 35° C.
Method: To determine if a compound is capable of at least inhibiting the growth of at least one Gram negative bacteria in the liquid detergent the following test is performed.
A mixture of Gram negative bacteria, also known as a Gram negative cocktail or cocktail, is prepared. The Gram negative cocktail comprises a mixture of Pseudomonas aeruginosa ATCC 9027, Pseudomonas fluorescens ATCC 13525, Burkholderia (Pseudomonas) cepacia ATCC 25416, Klebsiella oxytoca ATCC 13182, Escherichia coli ATCC 8739, Citrobacter freundii ATCC 8090 and Serratia liquefaciens ATCC 27592. The Gram negative bacterial cocktail is prepared by growing each organism individually on plates containing a growth medium and picking isolated colonies for preparation of the Gram negative cocktail. The growth medium is TSA (tryptic soy agar, available from Becton Dickinson). TSA contains per liter water: 15 g pancreatic digest of casein, 5 g enzymatic digest of soy bean meal, 5 g sodium chloride, and 15 g agar with the pH adjusted to 7.3±0.2 using hydrochloric acid, HCL (J. T. Baker).
The individually selected colonies are added to sterilized saline and adjusted to a McFarland standard of #2 (Available from bioMerieux, Inc.) to prepare a standardized saline suspension for the organism. This is repeated for each organism individually, thereby by preparing a standardized saline suspension for each organism. An equal volume (1 ml) of each standardized saline suspension of the following cocktail members are mixed together: Pseudomonas aeruginosa ATCC 9027, Pseudomonas fluorescens ATCC 13525, Burkholderia (Pseudomonas) cepacia ATCC 25416, Klebsiella oxytoca ATCC 13182, Escherichia coli ATCC 8739, Citrobacter freundii ATCC 8090 and Serratia liquefaciens ATCC 27592.
An inoculated liquid laundry detergent is prepared by the addition to 49.5 ml of the standard liquid laundry detergent, described in Table A below, of 0.5 ml of the Gram negative bacterial cocktail as prepared above. This standard liquid laundry detergent also contains from about 0.00001% to about 5%, by weight of the composition, of one or more of the tripeptide enzyme inhibitors described herein.
As the cocktail contains approximately 10^7 to 10^8 cfu/ml (colony forming units/ml); the resulting inoculum level in the inoculated liquid laundry detergent is 10^5 to 10^6 cfu/ml. The inoculated liquid laundry detergent is stored at 35° C., a relative humidity of about 60% and at standard pressure, i.e. 1 atmosphere. Samples of Iml are removed from the inoculated liquid laundry detergent at the following times, 1 day, 2 days, 7 days, 14 days, 21 days and 28 days. These 1 ml samples, are immediately neutralized by addition to a neutralizer, namely polyvalent universal neutralizer (PVUN) which contains (per liter distilled water): 30 g Polysorbate 80 (Available under the brand Tween 80, from VWR International), 5 g Sodium thiosulfate, Ig L-Histidine, Ig Peptone, 8.5 g Sodium chloride, 14.3 g Lecithin with the pH adjusted to 7.0±0.2 with HCL.
Each neutralized sample is then subjected to a serial dilution, to the 10^−5 dilution to allow full enumeration of the surviving microbial population. For example, 1 ml of sample is added to 9 ml of PVUN, resulting in a 1:10 dilution, or 10^−1 dilution. A 1 ml sample of this 1:10 dilution is then added to another 9 ml PVUN, resulting in a 1:100 dilution, or 10^−2 dilution, and so on. Serial dilutions are carried out to 10^−5. 1.0 ml of the various dilutions (10^−1 or 10^−5) are then either spread or pour plated on TSA (tryptic soy agar, Becton Dickinson) and are then incubated for 72 hours at 35° C.±2° C.
After incubation, the plates are counted and recorded as cfu/ml survival vs. time (days 1, 2, 7, 14, 21, and 28 days). Results are recorded as log viable cells on specified sampling days. […]

COC(=O)N[C@H](C(=O)N[C@@H](C)C(=O)N[C@H](C=O)CC(C)C)C(C)C (Moc-Val-Ala-Leu-aldehyde)
Count (log viable cells) (Day 1, inoculum 10^5 to 10^6 cfu/ml): 4.7 log viable cells | Count (log viable cells) (Day 2): 4.0 log viable cells | Count (log viable cells) (Day 7): <0.1 log viable cells | Count (log viable cells) (Day 14): <0.1 log viable cells | Count (log viable cells) (Day 21): <0.1 log viable cells | Count (log viable cells) (Day 28): <0.1 log viable cells | Growth of Gram negative bacteria in liquid laundry detergents: prevents the growth of Gram negative bacteria
